Patent US11530204B2, “Biocatalytic synthesis of cryptophycin anticancer agents” (priority 2019, dated 2022)

Legend:
[1] = system: HCT-116 human colorectal cancer cell line; assay: IC50 in HCT-116 human colorectal cancer cell line; assay type: cell-based; details: for IC50: Homo sapiens
Description: Each of the cryptophycin analogs was assessed using a zone assay as a relative comparison of potency over a variety of cell lines (see Table 1), and the IC50 for each analog was determined in the HCT-116 human colorectal cancer cell line.

[2] = system: platinum-resistant ovarian cancer; details: cited from earlier work

Row | SMILES | IC50 [1] [nM] | also measured
1 | COc1ccc(C[C@H]2NC(=O)/C=C/C[C@@H]([C@H](C)/C=C/c3ccccn3)OC(=O)[C@H](CC(C)C)OC(=O)[C@H](C)CNC2=O)cc1Cl [2 pyridyl, (3S,6R,10R,16S,E)-10-(3-chloro-4-methoxybenzyl)-3-isobutyl-6-methyl-16-((R,E)-4-(pyridin-2-yl)but-3-en-2-yl)-1,4-dioxa-8,11-diazacyclohexadec-13-ene-2,5,9,12-tetraone] | 102 | 
2 | COc1ccc(C[C@H]2NC(=O)/C=C/C[C@@H]([C@H](C)/C=C/c3cccnc3)OC(=O)[C@H](CC(C)C)OC(=O)[C@H](C)CNC2=O)cc1Cl [3 pyridyl, (3S,6R,10R,16S,E)-10-(3-chloro-4-methoxybenzyl)-3-isobutyl-6-methyl-16-((R,E)-4-(pyridin-3-yl)but-3-en-2-yl)-1,4-dioxa-8,11-diazacyclohexadec-13-ene-2,5,9,12-tetraone] | 0.86 | 
3 | COc1ccc(C[C@H]2NC(=O)/C=C/C[C@@H]([C@H](C)/C=C/c3cnn(C)c3)OC(=O)[C@H](CC(C)C)OC(=O)[C@H](C)CNC2=O)cc1Cl [4 methyl pyrazole, (3S,6R,10R,16S,E)-10-(3-chloro-4-methoxybenzyl)-3-isobutyl-6-methyl-16-((R,E)-4-(1-methyl-1H-pyrazol-4-yl)but-3-en-2-yl)-1,4-dioxa-8,11-diazacyclohexadec-13-ene-2,5,9,12-tetraone] |  | potency in words [1]: low pico-molar
4 | COc1ccc(C[C@H]2NC(=O)/C=C/C[C@@H]([C@H](C)/C=C/c3ccncc3)OC(=O)[C@H](CC(C)C)OC(=O)[C@H](C)CNC2=O)cc1Cl [4 pyridyl, (3S,6R,10R,16S,E)-10-(3-chloro-4-methoxybenzyl)-3-isobutyl-6-methyl-16-((R,E)-4-(pyridin-4-yl)but-3-en-2-yl)-1,4-dioxa-8,11-diazacyclohexadec-13-ene-2,5,9,12-tetraone] | 0.51 | 
5 | COc1ccc(C[C@H]2NC(=O)/C=C/C[C@@H]([C@H](C)[C@H]3O[C@@H]3c3ccccc3)OC(=O)[C@H](CC(C)C)OC(=O)C(C)(C)CNC2=O)cc1Cl [cryptophycin 52] |  | dose-limiting toxicity ([2]; clinical trials): dose-limiting peripheral neuropathy; clinical outcome ([2]; platinum-resistant ovarian cancer): significant disease stabilization
